Measured values reported in PubChem BioAssay (NCI).
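Each compound was tested at five concentrations against cells in 96-well plates for 48 hours. TGI: total growth inhibition.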

Columns and labels:
Assay in all cases: NCI tumour cell line growth inhibition, 48 h
OVCAR-8 ovarian = system: OVCAR-8 ovarian
MALME-3M melanoma = system: MALME-3M melanoma
TK-10 renal = system: TK-10 renal
K-562 leukemia = system: K-562 leukemia
SW-620 colon = system: SW-620 colon
EKVX NSCLC = system: EKVX NSCLC
NCI-H460 lung = system: NCI-H460 lung
SNB-19 CNS = system: SNB-19 CNS
A549 NSCLC = system: A549 NSCLC
HCC-2998 colon = system: HCC-2998 colon
NCI-H522 lung = system: NCI-H522 lung
NCI/ADR-RES ovarian = system: NCI/ADR-RES ovarian
M14 melanoma = system: M14 melanoma
BT-549 breast = system: BT-549 breast
A498 renal = system: A498 renal
RXF 393 renal = system: RXF 393 renal
UACC-62 melanoma = system: UACC-62 melanoma
SK-MEL-2 melanoma = system: SK-MEL-2 melanoma

SMILES	TGI (OVCAR-8 ovarian) [µM]	TGI (MALME-3M melanoma) [µM]	TGI (TK-10 renal) [µM]	TGI (K-562 leukemia) [µM]	TGI (SW-620 colon) [µM]	TGI (EKVX NSCLC) [µM]	TGI (NCI-H460 lung) [µM]	TGI (SNB-19 CNS) [µM]	TGI (A549 NSCLC) [µM]	TGI (HCC-2998 colon) [µM]	TGI (NCI-H522 lung) [µM]	TGI (NCI/ADR-RES ovarian) [µM]	TGI (M14 melanoma) [µM]	TGI (BT-549 breast) [µM]	TGI (A498 renal) [µM]	TGI (RXF 393 renal) [µM]	TGI (UACC-62 melanoma) [µM]	TGI (SK-MEL-2 melanoma) [µM]
Cc1cc(S(=O)(=O)NC2=NC(c3ccccc3)c3ccccc3N2)c(S)cc1Cl (stereo not drawn)	> 100	> 100	> 100	> 100	> 100	> 100	> 100	> 100	> 100	> 100	> 100	> 100	> 100	> 100	> 100	> 100	> 100	
NC1CC(=O)c2csc(Cl)c21 (stereo not drawn)	23	7.56	24.1	> 100		35.9	49.5	33.2	36.7	33.9	3.32	> 86.7	23.7	33.4	33.5	17.8	24.7	30.7
COC(=O)[C@]12CCC(C)(C)C[C@H]1C1=CC[C@@H]3[C@@]4(C)CC[C@H](OC5OC(CO)C(O)C(O)C5OC5OC(CO)C(O)C(O)C5O)C(C)(C)[C@@H]4CC[C@@]3(C)[C@]1(C)CC2 (stereo partly drawn)	34	25.2		25.4	27.7	26	30.2	29.6	22.2	37.9	8.71	29.1	13.9	35.8	23.5	19.7	23.9	23.9
COc1ccccc1N1C(=O)CS(=O)(=O)C1c1cccc(Oc2ccccc2)c1 (stereo not drawn)	34.3	30	33.8	19.1	82.8	42.6	29.4	38.7	40.5		29.3	40	33.3	31.8	34.6	38.8	25.3	27.1
CO[C@@H]1C=C[C@@]23c4cc5c(cc4C(O)N(CC2O)C3C1)OCO5 (stereo partly drawn)	> 100	> 100	23	> 100	> 100	33.3	12.9	33.8	39.5		> 100	75.1	12.6	20.5	7.68	50.3	20.4	9.09
COc1ccc(N2C(=O)c3cccnc3S2(=O)=O)cc1	> 100	> 100		> 100	> 100	> 100	> 100	> 100	> 100	> 100	> 100	> 100	> 100	> 100	> 100	> 100	> 100	> 100
Nc1ccc2cc3[nH]c4cc(N)ccc4c3nc2c1	1.69		7.98	> 22.6	0.845	1.93	0.548	3.76	3.38	0.976	64.6	2.34	1.36	3.15	1.24	1.98	0.708	1.47
NCCCCN(CCCN)Cc1ccccc1	> 100		> 100	> 100	> 100	> 100	> 100	> 100	> 100	> 100	> 100	> 100	> 100	> 100	> 100	> 100	> 100	> 100
COc1cc2nc(-c3ccccc3F)[nH]c(=O)c2cc1OC	> 100	> 100	> 100	> 100		> 100	> 100	> 100	> 100	> 100	> 100	> 100	> 100	> 100	> 100	> 100	> 100	> 100
O=C(Nc1sccc1S(=O)(=O)c1ccc(Cl)cc1)C(F)(F)F	> 100	> 100	> 100	35.5	> 100	> 100	> 100	> 100	> 100	> 100	> 100	> 100	> 100	> 100	> 100		> 100	48.4
O=C1Nc2cc([N+](=O)[O-])ccc2C(=O)N2CCC[C@@H]12	> 100		> 100	> 100	> 100	> 100	> 100	> 100	> 100	> 100	> 100	> 100	> 100	> 100	> 100	> 100	> 100	> 100
CCOC(CI)O[C@@H]1C=C[C@H](OC(C)=O)C1 (stereo partly drawn)	> 100	> 100		> 100	> 100	> 100	> 100	> 100	> 100	> 100		> 100	> 100	> 100	> 100	> 100	> 100	> 100
CN(C)CCCNc1ccnc2cc([N+](=O)[O-])ccc12	46.1	11.4	65.4	> 100	30		17.7		60.6		16.3	50	24.4	33.4	31.7	26.3	33.6	29.7
